Reference: ChEMBL document CHEMBL1125514, “Quantitative structure-activity relationships of N2-phenylguanines as inhibitors of herpes simplex virus thymidine kinases” (J Med Chem, 1992)

Assays:
Thymidine kinase [1] = biological target: T1, Thymidine kinase (Human herpesvirus 2, UniProt Q6L709); assay: Inhibitory activity against HSV-2 thymidine kinase isolated from HeLa cells; type: cell-free; conditions: read-out: Log 1/IC50 (converted)
T1 sequence (Q6L709 whole entry): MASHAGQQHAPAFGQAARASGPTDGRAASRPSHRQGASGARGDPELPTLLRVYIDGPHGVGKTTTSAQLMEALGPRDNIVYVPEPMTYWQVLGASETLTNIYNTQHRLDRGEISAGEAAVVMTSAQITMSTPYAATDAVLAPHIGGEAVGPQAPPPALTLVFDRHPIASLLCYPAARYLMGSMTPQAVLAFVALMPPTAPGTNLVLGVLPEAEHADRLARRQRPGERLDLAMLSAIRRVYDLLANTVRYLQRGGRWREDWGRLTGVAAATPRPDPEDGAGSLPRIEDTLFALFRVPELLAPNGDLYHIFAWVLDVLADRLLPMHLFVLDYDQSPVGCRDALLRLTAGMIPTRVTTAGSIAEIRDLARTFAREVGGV

Thymidine kinase [2] = biological target: T2, Thymidine kinase (Human herpesvirus 1 (strain SC16) (HHV-1) (Human herpes simplex virus1), UniProt P06479); assay: Inhibitory activity against HSV-1 thymidine kinase isolated from HeLa cells; type: cell-free; conditions: for IC50: read-out: Log 1/IC50 (converted)
T2 sequence (P06479 whole entry): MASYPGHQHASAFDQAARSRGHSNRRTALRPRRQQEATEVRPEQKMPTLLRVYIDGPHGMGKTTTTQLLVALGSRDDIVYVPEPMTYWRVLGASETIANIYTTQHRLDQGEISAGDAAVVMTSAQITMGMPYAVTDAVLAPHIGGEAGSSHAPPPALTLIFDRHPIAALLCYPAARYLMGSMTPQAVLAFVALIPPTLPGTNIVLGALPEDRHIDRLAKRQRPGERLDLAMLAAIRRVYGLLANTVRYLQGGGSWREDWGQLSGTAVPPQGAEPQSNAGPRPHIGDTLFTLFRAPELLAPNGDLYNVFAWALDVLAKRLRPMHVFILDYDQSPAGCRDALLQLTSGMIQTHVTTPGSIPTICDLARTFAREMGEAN

SMILES	IC50 (Thymidine kinase [1])	IC50 (Thymidine kinase [2])	Log 1/IC50 (Thymidine kinase [2]; hela)
Oc1[nH]c(Nc2cccc(CCl)c2)nc2ncnc1-2	1.35 µM	1.41 µM	–
Oc1[nH]c(Nc2ccc(Cl)cc2)nc2ncnc1-2	50.1 µM	100 µM	–
CCCc1ccc(Nc2nc(O)c3[nH]cnc3n2)cc1	46.8 µM	30.2 µM	–
NCc1cccc(Nc2nc(O)c3[nH]cnc3n2)c1	20 µM	30.2 µM	–
[N-]=[N+]=NCc1cccc(Nc2nc3ncnc-3c(O)[nH]2)c1	1.51 µM	0.794 µM	–
Oc1[nH]c(Nc2cccc(CBr)c2)nc2ncnc1-2	1.2 µM	1 µM	–
Oc1[nH]c(Nc2cccc(I)c2)nc2ncnc1-2	1.1 µM	1.1 µM	–
CC(C)c1ccc(Nc2nc(O)c3[nH]cnc3n2)cc1	100 µM	200 µM	–
CCCCc1ccc(Nc2nc(O)c3[nH]cnc3n2)cc1	50.1 µM	–	4.3
O=c1nc(Nc2cccc(CO)c2)[nH]c2nc[nH]c12	20 µM	25.1 µM	–
Oc1[nH]c(Nc2ccc(F)c(Cl)c2)nc2ncnc1-2	2.51 µM	7.94 µM	–
Oc1[nH]c(Nc2ccc(F)cc2)nc2ncnc1-2	257 µM	302 µM	–
O=c1[nH]c(Nc2ccc(F)c(F)c2)nc2nc[nH]c12	2.19 µM	50.1 µM	–
Oc1[nH]c(Nc2ccc(Cl)c(C(F)(F)F)c2)nc2ncnc1-2	5.01 µM	20 µM	–
CCCCc1ccc(Nc2nc(O)c3[nH]cnc3n2)cc1C	–	39.8 µM	–
CCCCCc1ccc(Nc2nc(O)c3[nH]cnc3n2)cc1	251 µM	501 µM	–
CCc1cccc(Nc2nc3nc[nH]c3c(=O)[nH]2)c1	3.98 µM	2.51 µM	–
Cc1ccc(Nc2nc3nc[nH]c3c(=O)[nH]2)cc1	6.03 µM	50.1 µM	–
O=c1[nH]c(Nc2cccc(C(F)(F)F)c2)nc2nc[nH]c12	0.1 µM	0.151 µM	–
N#Cc1cccc(Nc2nc3ncnc-3c(O)[nH]2)c1	0.398 µM	5.01 µM	–
Oc1[nH]c(Nc2cccc(Br)c2)nc2ncnc1-2	0.603 µM	1.51 µM	–
Oc1[nH]c(Nc2ccc(I)cc2)nc2ncnc1-2	8.91 µM	39.8 µM	–
Oc1[nH]c(Nc2cccc(Cl)c2)nc2ncnc1-2	0.347 µM	1.51 µM	–
Oc1[nH]c(Nc2ccc(Br)cc2)nc2ncnc1-2	0.603 µM	1 µM	–
O=c1[nH]c(Nc2ccc(O)cc2)nc2nc[nH]c12	20 µM	141 µM	–
Oc1[nH]c(Nc2ccc3ccccc3c2)nc2ncnc1-2	10 µM	39.8 µM	–
Oc1[nH]c(Nc2ccc(C(F)(F)F)cc2)nc2ncnc1-2	39.8 µM	30.2 µM	–
Oc1[nH]c(Nc2ccc(Br)c(Br)c2)nc2ncnc1-2	1.29 µM	3.02 µM	–
Cc1ccc(Nc2nc(O)c3[nH]cnc3n2)cc1CO	200 µM	269 µM	–
